# Measured values published in US20080280860A1, “Use of Vitamin D Compounds to Treat Endometriosis” (BioXell S.p.A., priority 2005, published 2008).
# Assays:
# endometriotic lesions = assay: In vivo model of endometriosis (lesion weight); parameters: species or system Balb/c mice
# Procedure: Balb/c donor mice were injected with estrogen (Estradiol AMSA; 3 ug/mouse) and one week later were sacrificed and the uterus was removed, the two horns isolated and reduced to small fragments. The fragments derived from the isolated uterine horns were resuspended in saline with ampicillin (1 mg/ml) and then injected into the peritoneum of two recipient Balb/c mice, previously anesthesized, through a 0.5 cm incision in the abdominal wall. […] Antibiotic (ampicillin 1 mg/ml) was administered on the day of the surgery and on the day after. […] […] Lesions can be identified as translucid isolated or grouped cysts mainly found on the abdominal wall, on the pancreas, and around the uterus. In some cases the lesions are necrotic. The lesions were carefully removed and put on a glass slide to dry for 48 hours, and then were weighed. In other experiments lesions are transferred to a lysis solution and mRNA isolated for gene expression analysis. For immunohistochemical analysis, lesions were frozen immediately after isolation.
# Balb/c donor mice were injected with estrogen (Estradiol AMSA; 3 ug/mouse) and one week later were sacrificed and the uterus was removed, the two horns isolated and reduced to small fragments. The fragments derived from the isolated uterine horns were resuspended in saline with ampicillin (1 mg/ml) and then injected into the peritoneum of two recipient Balb/c mice, previously anesthetised, through a 0.5 cm incision in the abdominal wall. Antibiotic (ampicillin 1 mg/ml) was administered on the day of the surgery and on the day after. […] Dosage levels of the test compounds were at the maximum tolerated levels for the compound in question, i.e. 1-alpha-fluoro-25-hydroxy-16,23E-diene-26,27-bishomo-20-epi-cholecalciferol (Compound A) 100 ug/kg, calcitriol (Compound B) 0.3 ug/kg and 1,25-dihydroxy-21-(3-hydroxy-3-methylbutyl)-19-nor-cholecalciferol (Compound C) 3 ug/kg.
# (§1) […] Lesions can be identified as translucid isolated or grouped cysts mainly found on the abdominal wall, on the pancreas, and around the uterus. In some cases the lesions are necrotic. The lesions were carefully removed and put on a glass slide to dry for 48 hours, and then were weighed.
# Balb/c donor mice were injected with estrogen (Estradiol AMSA; 3 ug/mouse) and one week later were sacrificed and the uterus was removed, the two horns isolated and reduced to small fragments. The fragments derived from the isolated uterine horns were resuspended in saline with ampicillin (1 mg/ml) and then injected into the peritoneum of recipient Balb/c mice, previously anesthetised, through a 0.5 cm incision in the abdominal wall. Antibiotic (ampicillin 1 mg/ml) was administered on the day of the surgery and on the day after. […]
# as §1, with “weighed. At least 10 test animals were used in each group.” for “weighed.”
# Further experiments were performed using Compound A at 100 ug/kg but varying the time at which administration of the vitamin D compound was initiated and the time point at which administration was ceased. Specifically: (i) administration for 1 week prior to injection of the uterine fragments (ii) administration for 2 weeks subsequent to injection of the uterine fragments (iii) administration for 1 week prior and 2 weeks subsequent to injection of the uterine fragments (iv) administration for 2 weeks, initiated two days subsequent to injection of the uterine fragments (v) administration for 2 weeks, initiated two weeks subsequent to injection of the uterine fragments. In these experiments, subjects were sacrificed at the later of two weeks post injection or the end of the treatment period as appropriate.
# [1] = system: Ectopic endometrium stromal cells; assay: Proliferation of endometrial stromal cells in vitro (CyQuant), ectopic; type: cell-based; details: 1 uM-0.1 nM, 48-96 hours; FIG. 2B; may be dose dependent
# Procedure: Tissue was gently minced into small pieces (1 to 2 mm^3) and incubated at 37° C. for 1 h with 0.1% type A collagenase. At the end of the incubation, single stromal cells were separated from large clumps of epithelium by a 10 min. period of differential sedimentation at unity gravity. The top 8 ml of medium, containing predominantly stromal cells, were then slowly removed and the cells were collected by centrifugation. The stromal-enriched fraction was washed twice in culture medium and allowed to adhere selectively to tissue culture dishes for 15 min.
# Thereafter, nonattached epithelial cells still present were removed and a purified stromal preparation was obtained on the surface of the culture dishes.
# The cells were maintained in DMEM supplemented with 10% Fetal Bovine Serum (SIGMA) and 100 U/ml penicillin, 100 ug/ml streptomycin (GIBCO cat. no. 15140-122).
# When the stromal cells were grown to confluence, were washed in PBS and then trypsinized using 1× trypsin/EDTA solution (PromoCell cat. no. C-41002). […] The proliferation was determined with CyQuant Cell Proliferation Assay (Molecular Probe cat. no. C7026). […]
# The fluorescence was determined using a fluorescence microplate reader with filters appropriate for ˜480 nm excitation and ˜520 nm emission.
# Maximum tolerated dose = type: in vivo, Balb/c mice
# [2] = Example 3 dose/response, ip once a day, 5 days a week for two weeks, FIG. 7
structure (smiles),measurement,setting,value
"C=C1/C(=C\C=C2/CCC[C@]3(C)C([C@@H](C)C/C=C/C(O)(CC)CC)=CC[C@@H]23)C[C@@H](O)C[C@@H]1F [Compound A, 1-alpha-fluoro-25-hydroxy-16,23E-diene-26,27-bishomo-20-epi-cholecalciferol]","reduction in lesion weight, group (v)","endometriotic lesions; 100 ug/kg, 2 weeks, initiated 2 weeks after uterus transfer, FIG. 8",34%
same,"reduction in lesion weight, group (iv)","endometriotic lesions; 100 ug/kg, 2 weeks, initiated 2 days after uterus transfer, FIG. 8",35%
same,"reduction in lesion weight, group (i)","endometriotic lesions; 100 ug/kg, administration for 1 week prior to injection of the uterine fragments, FIG. 8",40%
same,"reduction in lesion weight, group (iii)","endometriotic lesions; 100 ug/kg, one week before and two weeks after uterus transfer, FIG. 8",73%
same,"reduction in lesion weight, group (ii)","endometriotic lesions; 100 ug/kg, two weeks starting at the time of uterus transfer, FIG. 8",48%
same,"lesion weight, treated versus control (vehicle only)","endometriotic lesions; Example 1, 100 ug/kg ip once a day, 5 days a week for two weeks, 17 pairs of mice, p=0.0034 paired, p=0.020 unpaired t test",significant reduction in lesion weight
same,lesion weight reduction between paired animals (mean ± standard error),"endometriotic lesions; Example 2, 100 ug/kg ip once a day, 5 days a week for two weeks after uterus transfer, 24 mice per group",51±11%
same,mean lesion weight,"endometriotic lesions; Example 2, 100 ug/kg ip, two weeks, miglyol control 8.452±1.039 mg",3.527 ± 0.5400 mg
same,reduction in lesion weight compared with the other compounds tested,"endometriotic lesions; Example 2, each compound at its maximum tolerated level",most pronounced
same,"lesion weight, treated versus control (vehicle only), statistical analysis","endometriotic lesions; Example 2, each compound at its maximum tolerated level, ip once a day, 5 days a week for two weeks",significant reduction in lesion weight
same,reduction in lesion weight at 1/10 MTD,endometriotic lesions; [2],approximately 20%
same,reduction in lesion weight at around ⅓ MTD,endometriotic lesions; [2],approximately 35%
same,"cell proliferation, Ectopic endometrium",[1],reduction in cell proliferation
same,MTD,"Maximum tolerated dose; Balb/c, mouse, in vivo, mice, ip, above it the compound becomes hypercalcemic",0.1 mg/kg
same,associated toxicity compared with the other compounds tested,Maximum tolerated dose; Example 2,lower associated toxicity
